Tests used:
Type in all cases: functional, cell-based, Cricetulus griseus
[1] = target: T1, Voltage-gated L-type calcium channel (Homo sapiens, UniProt Q13936+Q13698+Q01668+O60840); assay: (§1) Inhibition of Cav1.2 current measured using QPatch automatic path clamp system in CHO cells expressing Cav1.2, beta-2 and alpha-2/delta-1 subunits; parameters: ca sol conc 1.8 mM, temp Ambient
[2] = target: T1, Voltage-gated L-type calcium channel; assay: Inhibition of Cav1.2 current measured using PatchXpress automatic path clamp system in CHO cells expressing Cav1.2, beta-2 and alpha-2/delta-1 subunits; parameters: ca sol conc 1.8 mM, temp Ambient
[3] = target: T1, Voltage-gated L-type calcium channel; assay: as §1

| SMILES | IC50 [1] [µM] | also measured |
| --- | --- | --- |
| CO/N=C(\C(=O)N[C@@H]1C(=O)N2C(C(=O)O)=C(CSc3nc(=O)c(O)nn3C)CS[C@H]12)c1csc(N)n1 [CEFTRIAXONE] | 153.8 | – |
| O=C1CCc2cc(OCCCCc3nnnn3C3CCCCC3)ccc2N1 [CILOSTAZOL] | 91.2 | – |
| COc1cc(N)c(Cl)cc1C(=O)NC1CCN(CCCOc2ccc(F)cc2)CC1OC (stereo not given) [CISAPRIDE] | 11.8 | – |
| CC(C)N(CCC(C(N)=O)(c1ccccc1)c1ccccn1)C(C)C (stereo not given) [DISOPYRAMIDE] | 1036.7 | – |
| O=C(CCCN1CC=C(n2c(=O)[nH]c3ccccc32)CC1)c1ccc(F)cc1 [DROPERIDOL] | 7.6 | – |
| CCCCCCCN(CC)CCCC(O)c1ccc(NS(C)(=O)=O)cc1 (stereo not given) [IBUTILIDE] | 62.5 | – |
| CC(=O)NC[C@H]1CN(c2ccc(N3CCOCC3)c(F)c2)C(=O)O1 [LINEZOLID] | 105.4 | – |
| Cc1nc2n(c(=O)c1CCN1CCC(c3noc4cc(F)ccc34)CC1)CCCC2O (stereo not given) [PALIPERIDONE] | 193.9 | – |
| Fc1ccc([C@@H]2CCNC[C@H]2COc2ccc3c(c2)OCO3)cc1 [PAROXETINE] | 3.9 | – |
| CCCC(C)C1(CC)C(=O)NC(=O)NC1=O (stereo not given) [PENTOBARBITAL] | – | IC50 [2]: 299 µM |
| O=C1NC(=O)C(c2ccccc2)(c2ccccc2)N1 [PHENYTOIN] | 21.9 | – |
| CCN1CCN(C(=O)N[C@@H](C(=O)N[C@@H]2C(=O)N3[C@@H]2SC(C)(C)[C@@H]3C(=O)O)c2ccccc2)C(=O)C1=O [PIPERACILLIN] | 1226 | – |
| NC(=O)c1ncn([C@@H]2O[C@H](CO)[C@@H](O)[C@H]2O)n1 [RIBAVIRIN] | 622.5 | – |
| O=C1NCCN1CCN1CCC(c2cn(-c3ccc(F)cc3)c3ccc(Cl)cc23)CC1 [SERTINDOLE] | 6.3 | – |
| N[C@@H](CC(=O)N1CCn2c(nnc2C(F)(F)F)C1)Cc1cc(F)c(F)cc1F [SITAGLIPTIN] | 147.1 | – |
| C[C@@H]1CN(c2c(F)c(N)c3c(=O)c(C(=O)O)cn(C4CC4)c3c2F)C[C@H](C)N1 [SPARFLOXACIN] | 88.8 | – |
| CCN(CC)CCNC(=O)c1c(C)[nH]c(/C=C2\C(=O)Nc3ccc(F)cc32)c1C [SUNITINIB] | 33.4 | – |
| Cc1cn([C@@H]2C[C@@H](O)[C@H](CO)O2)c(=O)[nH]c1=O [TELBIVUDINE] | 713.9 | – |
| CC(CC(c1ccccc1)c1ccccc1)NC(C)(C)C (stereo not given) [TERODILINE] | 4.8 | – |
| C[C@@H](c1ncncc1F)[C@](O)(Cn1cncn1)c1ccc(F)cc1F [VORICONAZOLE] | – | IC50 [3]: 414.2 µM |
